Experimental data as given in ChEMBL document CHEMBL3885881, “DrugMatrix”.

Species on record: Rattus norvegicus
Assay: DrugMatrix - Regimen: Daily Repeat
Type: toxicity, organism-based, Sprague-Dawley
Parameters: regimen Daily Repeat, gender Male, age 6-8 weeks
Settings: in vivo, po, route oral GAVAGE, vehicle 100 % WATER; for NUCLEATED RED BLOOD CELLS / PLATELET COUNT / ABSOLUTE BASOPHIL / ABSOLUTE EOSINOPHIL / ABSOLUTE LYMPHOCYTE / ABSOLUTE MONOCYTE / ABSOLUTE SEGMENTED NEUTROPHIL / BASOPHIL / EOSINOPHIL / ERYTHROCYTE COUNT / HEMATOCRIT / LEUKOCYTE COUNT / LYMPHOCYTE / MEAN CORPUSCULAR HEMOGLOBIN / MEAN CORPUSCULAR HEMOGLOBIN CONCENTRATION / MEAN CORPUSCULAR VOLUME / MONOCYTE / NEUTROPHIL: tissue Blood; for ALANINE AMINOTRANSFERASE / ALBUMIN / ALKALINE PHOSPHATASE / ASPARTATE AMINOTRANSFERASE / BLOOD UREA NITROGEN / CARBON DIOXIDE / CHLORIDE / CHOLESTEROL / CREATINE PHOSPHOKINASE / CREATININE / LIPASE / POTASSIUM / TOTAL BILIRUBIN / TOTAL PROTEIN: tissue Plasma
[1] = 44 mg/kg, 120 h, dose level Low, time 5 day
[2] = 600 mg/kg, 72 h, dose level M1, time 3 day
[3] = 600 mg/kg, 120 h, dose level M1, time 5 day
[4] = 1200 mg/kg, 72 h, dose level High, time 3 day

Structure (SMILES): NC(=O)c1ncn([C@@H]2O[C@H](CO)[C@@H](O)[C@H]2O)n1 [RIBAVIRIN]
- NUCLEATED RED BLOOD CELLS [1]: 0 /100WBC
- PLATELET COUNT [1]: 1248.67 x10E3/uL
- ALANINE AMINOTRANSFERASE [1]: 43 u/L
- ALBUMIN [1]: 4.37 G/DL
- ALKALINE PHOSPHATASE [1]: 347 u/L
- ASPARTATE AMINOTRANSFERASE [1]: 75.33 u/L
- BLOOD UREA NITROGEN [1]: 13.67 mg/dL
- CARBON DIOXIDE [1]: 26 mmol/L
- CHLORIDE [1]: 102 MEQ/L
- CHOLESTEROL [1]: 63 mg/dL
- CREATINE PHOSPHOKINASE [1]: 230.67 u/L
- CREATININE [1]: 0.16 mg/dL
- LIPASE [1]: 8 u/L
- POTASSIUM [1]: 6.69 MEQ/L
- TOTAL BILIRUBIN [1]: 0.2 mg/dL
- TOTAL PROTEIN [1]: 6 G/DL
- ABSOLUTE BASOPHIL [2]: 0 CELLS/uL
- ABSOLUTE EOSINOPHIL [2]: 216 CELLS/uL
- ABSOLUTE LYMPHOCYTE [2]: 9535 CELLS/uL
- ABSOLUTE MONOCYTE [2]: 0 CELLS/uL
- ABSOLUTE SEGMENTED NEUTROPHIL [2]: 1715.67 CELLS/uL
- BASOPHIL [2]: 0%
- EOSINOPHIL [2]: 2%
- ERYTHROCYTE COUNT [2]: 6.28 x10E6/uL
- HEMATOCRIT [2]: 39.7%
- LEUKOCYTE COUNT [2]: 11.47 x10E3/uL
- LYMPHOCYTE [2]: 82.67%
- MEAN CORPUSCULAR HEMOGLOBIN [2]: 23.53 pg
- MEAN CORPUSCULAR HEMOGLOBIN CONCENTRATION [2]: 37.3 G/DL
- MEAN CORPUSCULAR VOLUME [2]: 63.2 fL
- MONOCYTE [2]: 0%
- NEUTROPHIL [2]: 15.33%
- NUCLEATED RED BLOOD CELLS [2]: 0 /100WBC
- PLATELET COUNT [2]: 1269.33 x10E3/uL
- ALANINE AMINOTRANSFERASE [2]: 185 u/L
- ALBUMIN [2]: 3.7 G/DL
- ALKALINE PHOSPHATASE [2]: 293.33 u/L
- ASPARTATE AMINOTRANSFERASE [2]: 480 u/L
- BLOOD UREA NITROGEN [2]: 16.33 mg/dL
- CARBON DIOXIDE [2]: 16 mmol/L
- CHLORIDE [2]: 104.33 MEQ/L
- CHOLESTEROL [2]: 83 mg/dL
- CREATINE PHOSPHOKINASE [2]: 1211.67 u/L
- CREATININE [2]: 0.22 mg/dL
- LIPASE [2]: 35 u/L
- POTASSIUM [2]: 7.1 MEQ/L
- TOTAL BILIRUBIN [2]: 0.2 mg/dL
- TOTAL PROTEIN [2]: 5.33 G/DL
- ABSOLUTE BASOPHIL [3]: 0 CELLS/uL
- ABSOLUTE EOSINOPHIL [3]: 179.33 CELLS/uL
- ABSOLUTE LYMPHOCYTE [3]: 10736 CELLS/uL
- ABSOLUTE MONOCYTE [3]: 0 CELLS/uL
- ABSOLUTE SEGMENTED NEUTROPHIL [3]: 2451.33 CELLS/uL
- BASOPHIL [3]: 0%
- EOSINOPHIL [3]: 1.33%
- ERYTHROCYTE COUNT [3]: 6.48 x10E6/uL
- HEMATOCRIT [3]: 40.57%
- LEUKOCYTE COUNT [3]: 13.37 x10E3/uL
- LYMPHOCYTE [3]: 81.33%
- MEAN CORPUSCULAR HEMOGLOBIN [3]: 23.67 pg
- MEAN CORPUSCULAR HEMOGLOBIN CONCENTRATION [3]: 37.87 G/DL
- MEAN CORPUSCULAR VOLUME [3]: 62.53 fL
- MONOCYTE [3]: 0%
- NEUTROPHIL [3]: 17.33%
- NUCLEATED RED BLOOD CELLS [3]: 0.33 /100WBC
- PLATELET COUNT [3]: 1066.33 x10E3/uL
- ALANINE AMINOTRANSFERASE [3]: 34 u/L
- ALBUMIN [3]: 3.63 G/DL
- ALKALINE PHOSPHATASE [3]: 197 u/L
- ASPARTATE AMINOTRANSFERASE [3]: 117.33 u/L
- BLOOD UREA NITROGEN [3]: 15 mg/dL
- CARBON DIOXIDE [3]: 16 mmol/L
- CHLORIDE [3]: 107.67 MEQ/L
- CHOLESTEROL [3]: 65.67 mg/dL
- CREATINE PHOSPHOKINASE [3]: 1121 u/L
- CREATININE [3]: 0.19 mg/dL
- LIPASE [3]: 14.33 u/L
- POTASSIUM [3]: 7.12 MEQ/L
- TOTAL BILIRUBIN [3]: 0.13 mg/dL
- TOTAL PROTEIN [3]: 5.2 G/DL
- ABSOLUTE BASOPHIL [4]: 0 CELLS/uL
- ABSOLUTE EOSINOPHIL [4]: 0 CELLS/uL
- ABSOLUTE LYMPHOCYTE [4]: 6405 CELLS/uL
- ABSOLUTE MONOCYTE [4]: 112.67 CELLS/uL
- BASOPHIL [4]: 0%
- EOSINOPHIL [4]: 0%
- ERYTHROCYTE COUNT [4]: 6.37 x10E6/uL
- HEMATOCRIT [4]: 39.37%
- LEUKOCYTE COUNT [4]: 8 x10E3/uL
- LYMPHOCYTE [4]: 80%
- MEAN CORPUSCULAR HEMOGLOBIN [4]: 24.77 pg
- MEAN CORPUSCULAR HEMOGLOBIN CONCENTRATION [4]: 40.07 G/DL
- MEAN CORPUSCULAR VOLUME [4]: 61.7 fL
- MONOCYTE [4]: 1.33%
- NEUTROPHIL [4]: 18.67%
- NUCLEATED RED BLOOD CELLS [4]: 0 /100WBC
- PLATELET COUNT [4]: 1071 x10E3/uL
- ALANINE AMINOTRANSFERASE [4]: 55.67 u/L
- ALBUMIN [4]: 3.17 G/DL
- ALKALINE PHOSPHATASE [4]: 195.67 u/L
- ASPARTATE AMINOTRANSFERASE [4]: 225.67 u/L
- BLOOD UREA NITROGEN [4]: 13.33 mg/dL
- CARBON DIOXIDE [4]: 20 mmol/L
- CHLORIDE [4]: 113.33 MEQ/L
- CHOLESTEROL [4]: 88 mg/dL
- CREATINE PHOSPHOKINASE [4]: 1322.67 u/L
- CREATININE [4]: 0.12 mg/dL
- LIPASE [4]: 7.67 u/L
- POTASSIUM [4]: 7 MEQ/L
- TOTAL BILIRUBIN [4]: 0.2 mg/dL
- TOTAL PROTEIN [4]: 4.47 G/DL
